Source: paper PMC4980604 (Scientific Reports, 2016)

Molecular target: T1, P-glycoprotein (P-gp) (Homo sapiens, UniProt P08183)
T1 construct: gene ABCB1; P-gp membranes (Pgp-Glo assay system)
Test: Pgp-Glo ATPase stimulation at […] (membranes)
Format: biochemical

T1 sequence (P08183 whole entry): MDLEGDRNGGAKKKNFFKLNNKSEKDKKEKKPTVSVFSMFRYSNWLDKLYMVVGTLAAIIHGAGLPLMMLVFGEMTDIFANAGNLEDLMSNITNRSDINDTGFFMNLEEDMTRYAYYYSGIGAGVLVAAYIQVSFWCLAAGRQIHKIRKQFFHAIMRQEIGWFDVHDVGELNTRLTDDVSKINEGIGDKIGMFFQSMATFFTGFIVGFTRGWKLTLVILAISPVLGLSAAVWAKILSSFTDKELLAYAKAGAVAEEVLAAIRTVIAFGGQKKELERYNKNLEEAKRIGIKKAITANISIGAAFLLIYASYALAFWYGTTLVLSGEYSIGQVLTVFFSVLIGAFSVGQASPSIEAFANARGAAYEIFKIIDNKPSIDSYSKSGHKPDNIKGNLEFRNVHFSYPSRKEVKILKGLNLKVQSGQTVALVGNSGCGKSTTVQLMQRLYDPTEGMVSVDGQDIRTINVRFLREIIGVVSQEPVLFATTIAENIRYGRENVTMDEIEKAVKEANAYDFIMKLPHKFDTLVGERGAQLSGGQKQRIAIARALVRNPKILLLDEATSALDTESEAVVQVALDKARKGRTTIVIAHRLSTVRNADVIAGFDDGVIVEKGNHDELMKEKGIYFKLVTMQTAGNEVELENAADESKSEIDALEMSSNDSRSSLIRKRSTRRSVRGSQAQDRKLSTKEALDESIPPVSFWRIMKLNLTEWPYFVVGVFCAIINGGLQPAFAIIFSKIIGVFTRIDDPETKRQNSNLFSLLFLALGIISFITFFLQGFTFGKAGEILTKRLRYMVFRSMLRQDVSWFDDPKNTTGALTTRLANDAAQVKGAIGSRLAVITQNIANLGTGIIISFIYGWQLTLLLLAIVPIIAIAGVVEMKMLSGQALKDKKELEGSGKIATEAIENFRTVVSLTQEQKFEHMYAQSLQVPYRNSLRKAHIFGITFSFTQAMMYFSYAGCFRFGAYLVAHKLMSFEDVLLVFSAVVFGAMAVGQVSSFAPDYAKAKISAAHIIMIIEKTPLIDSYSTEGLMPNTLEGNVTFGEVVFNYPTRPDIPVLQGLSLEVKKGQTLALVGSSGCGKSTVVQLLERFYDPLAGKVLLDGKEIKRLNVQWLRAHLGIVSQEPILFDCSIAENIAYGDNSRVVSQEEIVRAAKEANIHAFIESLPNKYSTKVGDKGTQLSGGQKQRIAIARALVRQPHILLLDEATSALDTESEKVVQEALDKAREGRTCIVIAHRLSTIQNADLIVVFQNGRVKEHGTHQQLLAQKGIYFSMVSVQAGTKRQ

How did the “Pgp-Glo ATPase stimulation at 2 μM (membranes)” value turn out when `CC[C@]1(O)C[C@H]2CN(CCc3c([nH]c4ccccc34)[C@@](C(=O)OC)(c3cc4c(cc3OC)N(C=O)[C@H]3[C@@](O)(C(=O)OC)[C@H](OC(C)=O)[C@]5(CC)C=CCN6CC[C@]43[C@@H]65)C2)C1` [vincristine] was run?
The value was “verapamil and vincristine induced an obvious increase in activity of P-gp ATPase”.
